Reference: patent publication US12578343B2, “Selective ACKR3 modulators and uses thereof” (Luxembourg Institute of Health (LIH), priority 2019, dated 2026)
pEC50: −log10 of the molar value.

How the values were obtained:
ACKR3 [1] = target: T1, ACKR3 (Homo sapiens, UniProt P25106); assay: ACKR3-mediated depletion of extracellular dynorphin A monitored by its ability to activate KOR (U87-ACKR3 cells); format: cell-based; design: expressed in transfected cells; for the receptor comparison in the uptake assay, transient pcDNA3.1); details: for reversal of the ACKR3-mediated impairment of dynorphin A potency to activate KOR by pre-treatment: pre-treatment of ACKR3-expressing cells, saturating concentration
Protocol: (§1) In brief, 1.2×10^6 U87 cells were plated in 10 cm-culture dishes and 48 hours later co-transfected with pNBe vectors encoding GPCRs C-terminally tagged to SmBiT and human β-arrestin-1 or -2 or mini G proteins (mG, engineered GTPase domains of Gα subunits,) N-terminally fused to LgBiT. 48 hours post-transfection cells were harvested, incubated 25 minutes at 37° C. with Nano-Glo Live Cell substrate diluted 200-fold and distributed into white 96-well plates (5×10^4 cells per well). Ligand-induced, β-arrestin and mG recruitment to GPCRs was evaluated with a Mithras LB940 luminometer (Berthold Technologies) for 20 minutes. For concentration-response curves, the signal recorded with a saturating concentration of full agonist for each receptor was set as 100%.
Target sequence in this assay (P25106 whole entry, the tested form may be a part): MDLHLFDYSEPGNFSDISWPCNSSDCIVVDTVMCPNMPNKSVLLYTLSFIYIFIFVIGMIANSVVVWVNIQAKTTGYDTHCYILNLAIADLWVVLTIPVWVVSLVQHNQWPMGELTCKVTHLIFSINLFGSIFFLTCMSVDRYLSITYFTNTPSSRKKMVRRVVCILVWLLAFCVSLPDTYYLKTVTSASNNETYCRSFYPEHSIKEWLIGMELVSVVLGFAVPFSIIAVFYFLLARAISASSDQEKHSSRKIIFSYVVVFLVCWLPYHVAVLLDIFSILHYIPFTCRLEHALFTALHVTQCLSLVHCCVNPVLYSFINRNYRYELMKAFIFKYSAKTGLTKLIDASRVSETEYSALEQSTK

[2] = tested on: rat locus coeruleus neurons; format: cell-based
Protocol: 1.9. Ex Vivo Rat Neuron Depolarization
Adult male Wistar rats (6 to 8-week old) were housed at room temperature in groups of three or four with a 12:12 hour light-dark cycle. All animals had access to ad libitum food and water. All procedures were carried out in accordance with guidelines of the European Communities Council Directive of 24 Nov. 1986 (86609EE) and were accepted by the Ethics Committee for Animal Use of the University of Liège (protocol 2061). All efforts were made to minimize animal suffering.
1.9.2. Brain Explant Preparation and Recording Procedures
Rats were anaesthetized with chloral hydrate (400 mg/kg, i.p.) and placed under a cap with oxygenated air (95% O2, 5% CO2) two minutes prior to decapitation. After decapitation, the brain was rapidly removed and placed in ice cold (˜2° C.) oxygenated artificial cerebrospinal fluid (aCSF) of the following composition: NaCl 130 mM, KCl 3.5 mM, NaH2PO4 1.25 mM, NaHCO3 24 mM, Glucose 10 mM, CaCl2 2 mM, MgSO4 1.25 mM. A block of tissue containing the pons was placed in a vibrating blade microtome (Vibratome 1000 Plus, Sectioning System) and a slice containing the locus coeruleus (LC) immediately rostral to the fourth ventricle and the VIIth nerve, used as anatomical landmarks, was cut coronally (400 μm thick). The slice was placed on a nylon mesh in a recording chamber (volume: 0.5 ml) where it was superfused by oxygenated aCSF (34.0±0.5° C.) at a rate of 2 to 3 ml/min. The LC was recognized as a translucent region during transillumination, lateral to the fourth ventricle. All experiments were performed in oxygenated aCSF with synaptic blockers consisting of 10 μM CNQX, 10 μM SR95531, 1 μM MK801, and 1 μM CGP55845, which block AMPA/Kainate, GABAA, NMDA, and GABAB receptors, respectively. This ensured that the spontaneous firing of the neurons was only due to its endogenous pace making.
Extracellular single cell recordings of LC neurons were performed with glass microelectrodes filled with aCSF (resistance 10-20 MΩ). Signals were passed through an impedance adapter and were amplified 1000× using a home-made amplifier. […] Data were collected and analysed with the Spike 2 software (Cambridge Electronic Design). […] The duration of the extracellularly recorded action potentials was 2-3 ms. Drugs and peptides were applied for at least 10 minutes.
The mean firing rate over 1 minute was calculated during each condition. Next, the inhibition of firing by the peptides and drugs used (LIH383 and dynorphin) was quantified as the % of total inhibition. For this purpose, present inventors considered the mean firing rate during the last minute of each condition (control, LIH383 alone, LIH383 plus a given concentration of dynorphin).

ACKR3 [3] = target: T1, ACKR3; format: cell-based; design: expressed in transfected cells; host or cells: U87 cells, transient co-transfection of pNBe vectors
Target sequence in this assay (P25106 whole entry, the tested form may be a part): as above
Target sequence in this assay (P49407 whole entry partner, the tested form may be a part): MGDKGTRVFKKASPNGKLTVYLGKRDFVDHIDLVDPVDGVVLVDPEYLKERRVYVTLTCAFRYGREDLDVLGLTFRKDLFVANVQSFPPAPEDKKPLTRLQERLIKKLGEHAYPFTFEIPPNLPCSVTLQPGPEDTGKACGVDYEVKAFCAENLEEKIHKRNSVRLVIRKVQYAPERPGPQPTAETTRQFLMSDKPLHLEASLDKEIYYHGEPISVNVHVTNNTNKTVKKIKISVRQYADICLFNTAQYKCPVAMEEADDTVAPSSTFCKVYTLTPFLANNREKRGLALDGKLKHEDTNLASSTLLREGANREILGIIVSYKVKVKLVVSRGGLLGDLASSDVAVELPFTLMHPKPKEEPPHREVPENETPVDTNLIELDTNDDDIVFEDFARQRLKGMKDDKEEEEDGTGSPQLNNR

ACKR3 [4] = assay: ACKR3 | EC50 (nM)
Description: Table printed on a drawing sheet, FIG. 3 (continued) F
Head of the field: ACKR3 | EC50 (nM)
Footnotes: *NH2-substituted at C-terminus
The patent's description of the figure: FIG. 3. Structure-activity relationship analysis of adrenorphin variants on ACKR3 and classical opioid receptors. (A) Comparison of the impact of substitutions, truncations, extensions, D-amino acid replacement or dimerization on the agonist activity of adrenorphin towards ACKR3, MOR, DOR, KOR and NOP. The agonist activity or each variant was evaluated in β-arrestin-1 recruitment assay in U87 cells and expressed as fold change over the activity of wild-type adrenorphin. (B-E) Comparison of potency and efficacy of adrenorphin (B) and its variants bearing mutations Y1F (C), M5L (D) and R6A (E) to induce β-arrestin-1 recruitment to ACKR3 and the opioid receptors KOR, MOR, DOR and NOP in U87 cells. “˜” indicates a similar impact of the modification on the potency of the peptide towards ACKR3 and the indicated opioid receptor. Results represent the mean±S.E.M. (n ? 3) (F) Comparison of the potencies of peptide variants combining mutations Y1F with other modifications (mutations and/or extension) to induce β-arrestin-1 recruitment to ACKR3. Modified amino acids with respect to the mother peptide (Y1F adrenorphin […]) are underlined and in bold.
First copying reader's note: Bold underlined residues in the sequences mark modifications relative to the mother peptide; the pEC50 cells include the SEM after ±.
Where the first naming reader finds the target: head: ACKR3

KOR = KOR (Homo sapiens, UniProt P41145); assay: β-arrestin-1 recruitment to KOR (NanoBiT, U87 cells); format: cell-based; design: expressed in transfected cells; host or cells: U87 cells, transient co-transfection of pNBe vectors
Protocol: as §1

MOR = target: T2, MOR (Homo sapiens, UniProt P35372); format: cell-based
T2 construct: expressed in transfected cells; host or cells: U87 cells, transient co-transfection of pNBe vectors
Protocol: as §1

DOR = target: T3, DOR (Homo sapiens, UniProt P41143); assay: β-arrestin-1 recruitment to DOR (NanoBiT, U87 cells); format: cell-based
T3 construct: expressed in transfected cells; host or cells: U87 cells, transient co-transfection of pNBe vectors
Protocol: as §1

smNPCs = assay: Uptake of labelled dynorphin A (1-13) by smNPCs, imaging flow cytometry; format: cell-based, human
Protocol: U87 cells derived from human brain glioblastoma were obtained through the NIH AIDS Reagent Program from Dr. Deng and Dr. Littman. U87 stably expressing ACKR3 and CXCR4 were generated as previously described in Szpakowska, M. et al. Different contributions of chemokine N-terminal features attest to a different ligand binding mode and a bias towards activation of ACKR3/CXCR7 compared with CXCR4 and CXCR3. Br J Pharmacol 175, 1419-1438 (2018). U87 cells were grown in Dulbecco's modified Eagle medium (DMEM) supplemented with 15% foetal bovine serum and penicillin/streptomycin (100 Units/ml and 100 μg/ml). U87-ACKR3 and U87-CXCR4 were maintained under puromycin (1 μg/ml) selective pressure. smNPCs (small molecule neural precursor cells) derived from a healthy donor (C1-1) whose informed consent was obtained, were grown on Geltrex™-coated surface in N2B27 medium supplemented with 0.5 μM Purmorphamine, 3 μM CHIR 99021 and 150 μM ascorbic acid. N2B27 medium consisted of DMEM/F12 and NeuroBasal medium 50:50 with 0.5% N2 supplement, 1% B27 supplement lacking vitamin A, 1% GlutaMAX and 1% penicilin/streptomycin. Medium was renewed every other day.
Cells were distributed into 96-well plates (2×10^5 cells/well in Opti-MEM for U87 and U87-ACKR3 and 3×10^5 cells/well in N2B27 medium for smNPCs). […] For comparison of labelled opioid peptide-uptake by ACKR3 or classical opioid receptors, 1.2×10^6 U87 cells were seeded in 10-cm dishes and transfected 48 hours later with 4 μg pcDNA3.1 plasmid encoding ACKR3 or KOR, MOR or NOP. 48 hours post transfection, cells were harvested and treated as described above. Dead cells were excluded using Zombie NIR or Zombie Green viability dye (BioLegend) for FAM-labelled peptides and Cy5-labelled peptides, respectively. Images of 1×10^4 in-focus, living single cells were acquired with an ImageStream MKII imaging flow cytometer (Amnis) using 40× magnification (60× magnification for smNPCs). Samples were analysed using Ideas6.2 software. The number of spots per cell was determined using a mask-based software wizard.

ACKR3 [5] = target: T1, ACKR3; assay: Uptake of fluorescently labelled opioid peptides by ACKR3-expressing U87 cells, imaging flow cytometry; format: cell-based; design: expressed in transfected cells; for the receptor comparison in the uptake assay, transient pcDNA3.1); details: 40 minutes at 37° C.
Target sequence in this assay (P25106 whole entry, the tested form may be a part): as the sequence (P25106 whole entry, the tested form may be a part) above
Description: Visualization of Fluorescently Labelled Opioid Peptides Uptake by Imagestream

KOR, sequence (P41145 whole entry): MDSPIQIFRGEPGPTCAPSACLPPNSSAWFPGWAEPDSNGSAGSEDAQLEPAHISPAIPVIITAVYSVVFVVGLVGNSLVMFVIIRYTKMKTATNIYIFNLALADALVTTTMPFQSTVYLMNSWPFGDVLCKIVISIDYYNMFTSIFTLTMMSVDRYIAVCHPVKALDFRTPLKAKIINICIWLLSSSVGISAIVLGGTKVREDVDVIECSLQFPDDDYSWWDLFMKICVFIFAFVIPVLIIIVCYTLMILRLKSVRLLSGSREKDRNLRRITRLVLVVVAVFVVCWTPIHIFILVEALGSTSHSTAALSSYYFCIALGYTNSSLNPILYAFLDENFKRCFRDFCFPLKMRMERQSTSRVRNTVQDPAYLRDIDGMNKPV
T3 sequence (P41143 whole entry): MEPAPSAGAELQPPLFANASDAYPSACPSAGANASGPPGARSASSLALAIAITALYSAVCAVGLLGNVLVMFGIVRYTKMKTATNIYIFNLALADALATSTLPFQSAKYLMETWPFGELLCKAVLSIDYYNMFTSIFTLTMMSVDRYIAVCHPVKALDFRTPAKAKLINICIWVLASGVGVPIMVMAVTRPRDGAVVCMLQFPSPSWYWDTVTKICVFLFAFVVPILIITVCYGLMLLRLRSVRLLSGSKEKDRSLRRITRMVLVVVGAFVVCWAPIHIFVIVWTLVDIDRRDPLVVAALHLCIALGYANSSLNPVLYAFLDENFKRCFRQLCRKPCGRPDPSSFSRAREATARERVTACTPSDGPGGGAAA
T2 sequence (P35372 whole entry): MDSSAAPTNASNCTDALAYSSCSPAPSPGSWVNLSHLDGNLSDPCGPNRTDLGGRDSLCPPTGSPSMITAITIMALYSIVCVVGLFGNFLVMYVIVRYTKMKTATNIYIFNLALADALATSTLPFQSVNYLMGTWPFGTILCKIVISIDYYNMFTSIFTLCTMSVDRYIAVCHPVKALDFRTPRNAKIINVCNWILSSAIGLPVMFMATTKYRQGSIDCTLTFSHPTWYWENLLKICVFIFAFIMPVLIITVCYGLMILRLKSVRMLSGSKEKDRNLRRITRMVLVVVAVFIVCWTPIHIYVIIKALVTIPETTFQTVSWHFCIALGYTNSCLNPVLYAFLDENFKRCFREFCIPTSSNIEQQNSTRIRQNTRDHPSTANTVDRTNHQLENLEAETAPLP

CC[C@H](C)[C@H](NC(=O)[C@H](CCCNC(=N)N)NC(=O)[C@H](CCCNC(=N)N)NC(=O)[C@H](CC(C)C)NC(=O)[C@H](Cc1ccccc1)NC(=O)CNC(=O)CNC(=O)[C@@H](N)Cc1ccc(O)cc1)C(=O)N[C@@H](CCCNC(=N)N)C(=O)N1CCC[C@H]1C(=O)N[C@@H](CCCCN)C(=O)N[C@@H](CC(C)C)C(=O)N[C@@H](CCCCN)C(=O)N[C@@H](Cc1c[nH]c2ccccc12)C(=O)N[C@@H](CC(=O)O)C(=O)N[C@@H](CC(N)=O)C(=O)N[C@@H](CCC(N)=O)C(=O)O [dynorphin A]
apparent potency to activate KOR in the presence of ACKR3-expressing cells (ACKR3 [1]): impaired
pEC50 ([2]; LIH383 3 μM group, read-out: EC50 of dynorphin for inhibition of firing, one aberrant individual value that was omitted): 6.25
concentration giving total inhibition of neuron depolarization (neuronal firing) ([2]; explants of rat locus coeruleus): 1 µM

C=CCN1CC[C@]23c4c5ccc(O)c4O[C@H]2C(=O)CC[C@@]3(O)[C@H]1C5 [naloxone]
effect of dynorphin A (1 μM) on neuronal firing rate after naloxone pretreatment [2]: did not lead to a change in neuronal firing rate

Oc1ccc2c3c1O[C@H]1c4[nH]c5c(c4C[C@@]4(O)[C@@H](C2)N(CC2CC2)CC[C@]314)C[C@@]1(O)[C@H]2Cc3ccc(O)c4c3[C@@]1(CCN2CC1CC1)[C@H]5O4 [nor-binaltrophimine, reference compound]
activity of opioid modulators towards ACKR3 in β-arrestin recruitment (ACKR3 [3]; 10 μM, 1 μM and 100 nM): Weak activation of ACKR3

CXCL10: irrelevant (negative control) chemokine
reversal of the ACKR3-mediated impairment of dynorphin A potency to activate KOR by pre-treatment (ACKR3 [1]): not

CXCL11: C—X—C motif chemokine 11, endogenous ACKR3 chemokine ligand
pEC50 (ACKR3 [3]; U87 cells, read-out: EC50 in inducing β-arrestin recruitment to ACKR3): 8.66

FGGFMRRF (peptide 44) [SEQ ID NO: 69]
pEC50 (ACKR3 [4]): 7.96

FGGFMRRFR (peptide 45) [SEQ ID NO: 70]
pEC50 (ACKR3 [4]): 7.79

FGGFMRRKR (peptide 2) [SEQ ID NO: 4]
pEC50 (ACKR3 [4]): 8.95

FGGFMRRV [adrenorphin Y1F variant]
reduction of potency towards KOR as compared to WT adrenorphin (KOR): over 100 fold
impact of adrenorphin modification on activity towards ACKR3 (versus adrenorphin), in words (ACKR3 [3]; β-arrestin-1 recruitment, U87 cells): tenfold improvement in potency
reduction of potency towards MOR as compared to WT adrenorphin (MOR): over 100 fold
reduction of potency towards DOR as compared to WT adrenorphin (DOR): over 100 fold

FGGFMRRV* (mother peptide) [compound 35]
pEC50 (ACKR3 [4]): 8.03

FGGFMRRVR (peptide 3) [SEQ ID NO: 5]
pEC50 (ACKR3 [4]): 8.40

FGGWMRRF (peptide 47) [SEQ ID NO: 72]
pEC50 (ACKR3 [4]): 7.72

FGGWMRRFR (peptide 46) [SEQ ID NO: 71]
pEC50 (ACKR3 [4]): 7.72

FGGWMRRK (peptide 4) [SEQ ID NO: 6]
pEC50 (ACKR3 [4]): 8.39

FGGWMRRKR (peptide 6) [SEQ ID NO: 11]
pEC50 (ACKR3 [4]): 8.13

FGGWMRRV (peptide 43) [SEQ ID NO: 68]
pEC50 (ACKR3 [4]): 7.98

FGGWMRRVR (peptide 5) [SEQ ID NO: 10]
pEC50 (ACKR3 [4]): 8.27

MRRKFGGF [LIH383 ctrl, control peptide consisting of the 8 amino acids building LIH383 in a different arrangement, reference compound]
reversal of the ACKR3-mediated impairment of dynorphin A potency to activate KOR by pre-treatment (ACKR3 [1]): not
effect of pretreatment on uptake of labelled dynorphin A (1-13) by smNPCs (smNPCs; 3 μM, 15 minutes pre-treatment): not

YGGFMRRV* (adrenorphin) [compound 32]
pEC50 (ACKR3 [4]): 6.96

dynorphin 2-13: endogenous truncated dynorphin variant [reference compound]
β-arrestin recruitment to ACKR3: agonist activity/potency in words (ACKR3 [3]; U87 cells): activated

dynorphin 2-17: endogenous truncated dynorphin variant (GGFLRRIRPKLKWDNQ; listed as Homo sapiens) [reference compound]
β-arrestin recruitment to ACKR3: agonist activity/potency in words (ACKR3 [3]; U87 cells): activated

dynorphin A 1-13: endogenous opioid peptide, fragment of dynorphin A (YGGFLRRIRPKLK) [reference compound]
uptake of the fluorescently labelled peptide by ACKR3-expressing cells (also versus classical opioid receptor) (ACKR3 [5]): more efficient compared to that of KOR
accumulation of the labelled peptide by smNPCs (smNPCs; 250 nM, 40 minutes at 37° C.): able to accumulate
